This is an account of results in patent US9771369B2, “Compounds and methods for kinase modulation, and indications therefor” (Plexxikon Inc., priority 2014, dated 2017).

Structures are written as SMILES.

Sequence of c-kit mutant D816V (P10721 other isoform, or with tags, fused parts or gaps D816V/del 694-753): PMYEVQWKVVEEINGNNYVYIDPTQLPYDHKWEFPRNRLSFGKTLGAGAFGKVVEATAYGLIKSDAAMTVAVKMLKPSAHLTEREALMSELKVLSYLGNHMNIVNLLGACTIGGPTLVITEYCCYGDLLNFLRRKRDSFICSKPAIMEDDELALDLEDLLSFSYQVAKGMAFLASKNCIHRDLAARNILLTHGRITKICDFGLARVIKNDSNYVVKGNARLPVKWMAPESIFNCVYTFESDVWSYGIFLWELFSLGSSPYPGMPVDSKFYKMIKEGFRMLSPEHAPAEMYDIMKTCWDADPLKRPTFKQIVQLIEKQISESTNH

The target in this assay is c-kit mutant D816V (Homo sapiens (Human), UniProt P10721, D816V/DEL694-753). The assay is described as follows: c-Kit mutant D816V biochemical assay (AlphaScreen kinase activity). The method, boiled down:
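Recombinant His-tagged c-Kit D816V kinase domain (residues 551-934, insert 694-753 deleted, E. coli-expressed) phosphorylating 30 nM biotin-(E4Y)10 with 10 μM ATP, HEPES pH 7.2, Mg/Mn, 5% DMSO; 30 min, room temperature. Phosphorylation detected by AlphaScreen (streptavidin donor/PY30 acceptor beads); IC50 from 8-point 1:3 series.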
In general, IC50 refers to the concentration that gives 50% inhibition. `Cc1nc(C2(C)CCN(c3ncnc4[nH]c(-c5ccc(C#N)cc5)cc34)CC2)[nH]c1-c1ccc(OC(F)F)cc1` [P-3195, 4-[4-[4-[5-[4-(difluoromethoxy)phenyl]-4-methyl-1H-imidazol-2-yl]-4-methyl-1-piperidyl]-7H-pyrrolo[2,3-d]pyrimidin-6-yl]benzonitrile] returned an IC50 of 0.0001 to 1 µM.
To `Cc1cc2c(N3CCC(C)(c4nc(C)c(-c5ccc(OC(F)F)cc5)[nH]4)CC3)ncnc2[nH]1` [P-3196, 4-[4-[5-[4-(difluoromethoxy)phenyl]-4-methyl-1H-imidazol-2-yl]-4-methyl-1-piperidyl]-6-methyl-7H-pyrrolo[2,3-d]pyrimidine] belongs 0.0001 to 1 µM; to `CCc1[nH]c(C2CCN(c3ncnc4[nH]c(-c5cnn(C(F)F)c5)cc34)CC2)nc1C` [P-3197, 6-[1-(difluoromethyl)pyrazol-4-yl]-4-[4-(5-ethyl-4-methyl-1H-imidazol-2-yl)-1-piperidyl]-7H-pyrrolo[2,3-d]pyrimidine], 0.0001 to 1 µM.
In the case of `CCc1[nH]c(C2CCN(c3ncnc4[nH]c(-c5ccc(C#N)cc5)cc34)CC2)nc1C` [P-3198, 4-[4-[4-(5-ethyl-4-methyl-1H-imidazol-2-yl)-1-piperidyl]-7H-pyrrolo[2,3-d]pyrimidin-6-yl]benzonitrile], the IC50 lay within 0.0001 to 1 µM.
Molecule `COc1ccc(-c2[nH]c(C3(C)CCN(c4ncnc5[nH]c(-c6ccc(C(=O)O)cc6)cc45)CC3)nc2C)cc1F` [P-3199, 4-[4-[4-[5-(3-fluoro-4-methoxy-phenyl)-4-methyl-1H-imidazol-2-yl]-4-methyl-1-piperidyl]-7H-pyrrolo[2,3-d]pyrimidin-6-yl]benzoic acid] registered an IC50 of 0.0001 to 1 µM.
In turn, `Cc1nc(C2(C)CCN(c3ncnc4[nH]nc(C)c34)CC2)[nH]c1-c1ccc(Cl)cc1` [P-3200, 4-[4-[5-(4-chlorophenyl)-4-methyl-1H-imidazol-2-yl]-4-methyl-1-piperidyl]-3-methyl-1H-pyrazolo[3,4-d]pyrimidine] displayed an IC50 of 0.0001 to 1 µM.
To `Cc1nc(C2(C)CCN(c3ncnc4[nH]nc(C)c34)CC2)[nH]c1-c1cccc(OC(F)F)c1` [P-3201, 4-[4-[5-[3-(difluoromethoxy)phenyl]-4-methyl-1H-imidazol-2-yl]-4-methyl-1-piperidyl]-3-methyl-1H-pyrazolo[3,4-d]pyrimidine] belongs 0.0001 to 1 µM; to `COc1ccc(-c2[nH]c(C3(C)CCN(c4ncnc5[nH]nc(C)c45)CC3)nc2C)cc1F` [P-3202, 4-[4-[5-(3-fluoro-4-methoxy-phenyl)-4-methyl-1H-imidazol-2-yl]-4-methyl-1-piperidyl]-3-methyl-1H-pyrazolo[3,4-d]pyrimidine], 0.0001 to 1 µM; to `Cc1nc(C2(C)CCN(c3ncnc4[nH]nc(C)c34)CC2)[nH]c1-c1ccc2c(c1)OC(F)(F)O2` [P-3203, 4-[4-[5-(2,2-difluoro-1,3-benzodioxol-5-yl)-4-methyl-1H-imidazol-2-yl]-4-methyl-1-piperidyl]-3-methyl-1H-pyrazolo[3,4-d]pyrimidine], 0.0001 to 1 µM.
The molecule `Fc1ccc(-c2cc3c(N4CCC(c5nnc(-c6ccc(F)cc6)[nH]5)CC4)ncnc3[nH]2)cc1` [P-3206, 6-(4-fluorophenyl)-4-[4-[5-(4-fluorophenyl)-4H-1,2,4-triazol-3-yl]-1-piperidyl]-7H-pyrrolo[2,3-d]pyrimidine] came in with an IC50 of 0.0001 to 1 µM.
Take `COc1cc(-c2cc3c(N4CCC(c5nnc(-c6cccc(OC(F)F)c6)[nH]5)CC4)ncnc3[nH]2)ccn1` [P-3207, 4-[4-[5-[3-(difluoromethoxy)phenyl]-4H-1,2,4-triazol-3-yl]-1-piperidyl]-6-(2-methoxy-4-pyridyl)-7H-pyrrolo[2,3-d]pyrimidine]: the IC50 fell in the range of 1 to 10 µM.
Regarding `CCOc1ccc(-c2[nH]c(C3(C)CCN(c4ncnc5[nH]c(-c6ccc(OC)nc6)cc45)CC3)nc2C)cc1F` [P-3209, 4-[4-[5-(4-ethoxy-3-fluoro-phenyl)-4-methyl-1H-imidazol-2-yl]-4-methyl-1-piperidyl]-6-(6-methoxy-3-pyridyl)-7H-pyrrolo[2,3-d]pyrimidine], the IC50 was 0.0001 to 1 µM.
The molecule `CCOc1ccc(-c2[nH]c(C3(C)CCN(c4ncnc5[nH]c(-c6cnn(C(F)F)c6)cc45)CC3)nc2C)cc1F` [P-3210, 6-[1-(difluoromethyl)pyrazol-4-yl]-4-[4-[5-(4-ethoxy-3-fluoro-phenyl)-4-methyl-1H-imidazol-2-yl]-4-methyl-1-piperidyl]-7H-pyrrolo[2,3-d]pyrimidine] had a 50% inhibitory concentration (IC50) of 0.0001 to 1 µM.
`COc1ccc(-c2[nH]c(C3(C)CCN(c4ncnc5[nH]c(-c6ccc(C#N)nc6)cc45)CC3)nc2C)cc1F` [P-3211, 5-[4-[4-[5-(3-fluoro-4-methoxy-phenyl)-4-methyl-1H-imidazol-2-yl]-4-methyl-1-piperidyl]-7H-pyrrolo[2,3-d]pyrimidin-6-yl]pyridine-2-carbonitrile] returned an IC50 of 0.0001 to 1 µM.
In the case of `COc1ccc(-c2[nH]c(C3(C)CCN(c4ncnc5[nH]c(-c6ccc(C(N)=O)cc6)cc45)CC3)nc2C)cc1F` [P-3212, 4-[4-[4-[5-(3-fluoro-4-methoxy-phenyl)-4-methyl-1H-imidazol-2-yl]-4-methyl-1-piperidyl]-7H-pyrrolo[2,3-d]pyrimidin-6-yl]benzamide], the IC50 was 0.0001 to 1 µM.
For `COc1ccc(-c2[nH]c(C3(C)CCN(c4ncnc5[nH]c(-c6ccc(NS(C)(=O)=O)cc6)cc45)CC3)nc2C)cc1F` [P-3213, N-[4-[4-[4-[5-(3-fluoro-4-methoxy-phenyl)-4-methyl-1H-imidazol-2-yl]-4-methyl-1-piperidyl]-7H-pyrrolo[2,3-d]pyrimidin-6-yl]phenyl]methanesulfonamide], the IC50 is 0.0001 to 1 µM.
In turn, `COc1ccc(-c2[nH]c(C3(C)CCN(c4ncnc5[nH]c(-c6ccc(OCC(=O)O)cc6)cc45)CC3)nc2C)cc1F` [P-3214, 2-[4-[4-[4-[5-(3-fluoro-4-methoxy-phenyl)-4-methyl-1H-imidazol-2-yl]-4-methyl-1-piperidyl]-7H-pyrrolo[2,3-d]pyrimidin-6-yl]phenoxy]acetic acid] showed an IC50 of 0.0001 to 1 µM.
For the molecule `COc1ccc(-c2[nH]c(C3(C)CCN(c4ncnc5[nH]c(-c6ccc(N7CCOCC7)nc6)cc45)CC3)nc2C)cc1F` [P-3215, 4-[5-[4-[4-[5-(3-fluoro-4-methoxy-phenyl)-4-methyl-1H-imidazol-2-yl]-4-methyl-1-piperidyl]-7H-pyrrolo[2,3-d]pyrimidin-6-yl]-2-pyridyl]morpholine], the IC50 lay in the range of 0.0001 to 1 µM.
With `COc1ccc(-c2[nH]c(C3(C)CCN(c4ncnc5[nH]c(-c6ccc(C(N)=O)cc6)cc45)CC3)nc2C)cc1C` [P-3216, 4-[4-[4-[5-(4-methoxy-3-methyl-phenyl)-4-methyl-1H-imidazol-2-yl]-4-methyl-1-piperidyl]-7H-pyrrolo[2,3-d]pyrimidin-6-yl]benzamide], the IC50 fell in the range of 0.0001 to 1 µM.
The molecule `COc1ccc(-c2[nH]c(C3(C)CCN(c4ncnc5[nH]c(-c6ccc(OCC(=O)O)cc6)cc45)CC3)nc2C)cc1C` [P-3217, 2-[4-[4-[4-[5-(4-methoxy-3-methyl-phenyl)-4-methyl-1H-imidazol-2-yl]-4-methyl-1-piperidyl]-7H-pyrrolo[2,3-d]pyrimidin-6-yl]phenoxy]acetic acid] displayed an IC50 of 0.0001 to 1 µM.
`CNC(=O)c1ccc(-c2cc3c(N4CCC(C)(c5nc(C)c(-c6ccc(OC)c(C)c6)[nH]5)CC4)ncnc3[nH]2)cn1` [P-3218, 5-[4-[4-[5-(4-methoxy-3-methyl-phenyl)-4-methyl-1H-imidazol-2-yl]-4-methyl-1-piperidyl]-7H-pyrrolo[2,3-d]pyrimidin-6-yl]-N-methyl-pyridine-2-carboxamide] returned an IC50 of 0.0001 to 1 µM.
`COc1ccc(-c2[nH]c(C3(C)CCN(c4ncnc5[nH]c(-c6ccc(N7CCOCC7)nc6)cc45)CC3)nc2C)cc1C` [P-3219, 4-[5-[4-[4-[5-(4-methoxy-3-methyl-phenyl)-4-methyl-1H-imidazol-2-yl]-4-methyl-1-piperidyl]-7H-pyrrolo[2,3-d]pyrimidin-6-yl]-2-pyridyl]morpholine] registered an IC50 of 0.0001 to 1 µM.
Molecule `CNC(=O)c1ccc(-c2cc3c(N4CCC(C)(c5nc(C)c(-c6ccc(OC)c(F)c6)[nH]5)CC4)ncnc3[nH]2)cn1` [P-3220, 5-[4-[4-[5-(3-fluoro-4-methoxy-phenyl)-4-methyl-1H-imidazol-2-yl]-4-methyl-1-piperidyl]-7H-pyrrolo[2,3-d]pyrimidin-6-yl]-N-methyl-pyridine-2-carboxamide] gave an IC50 of 0.0001 to 1 µM.
On to `COc1cccc(-c2[nH]c(C3(C)CCN(c4ncnc5[nH]c(-c6ccc(OCC(=O)O)cc6)cc45)CC3)nc2C)c1` [P-3221, 2-[4-[4-[4-[5-(3-methoxyphenyl)-4-methyl-1H-imidazol-2-yl]-4-methyl-1-piperidyl]-7H-pyrrolo[2,3-d]pyrimidin-6-yl]phenoxy]acetic acid], for which the IC50 lay within 0.0001 to 1 µM.
For the molecule `CNC(=O)c1ccc(-c2cc3c(N4CCC(C)(c5nc(C)c(-c6cccc(OC)c6)[nH]5)CC4)ncnc3[nH]2)cn1` [P-3222, 5-[4-[4-[5-(3-methoxyphenyl)-4-methyl-1H-imidazol-2-yl]-4-methyl-1-piperidyl]-7H-pyrrolo[2,3-d]pyrimidin-6-yl]-N-methyl-pyridine-2-carboxamide], the IC50 was in the range of 0.0001 to 1 µM.
Take `COc1cccc(-c2[nH]c(C3(C)CCN(c4ncnc5[nH]c(-c6ccc(N7CCOCC7)nc6)cc45)CC3)nc2C)c1` [P-3223, 4-[5-[4-[4-[5-(3-methoxyphenyl)-4-methyl-1H-imidazol-2-yl]-4-methyl-1-piperidyl]-7H-pyrrolo[2,3-d]pyrimidin-6-yl]-2-pyridyl]morpholine]: the IC50 fell in the range of 0.0001 to 1 µM.
The molecule `CCOc1ccc(-c2[nH]c(C3(C)CCN(c4ncnc5[nH]c(-c6ccc(OCC(=O)O)cc6)cc45)CC3)nc2C)cc1` [P-3224, 2-[4-[4-[4-[5-(4-ethoxyphenyl)-4-methyl-1H-imidazol-2-yl]-4-methyl-1-piperidyl]-7H-pyrrolo[2,3-d]pyrimidin-6-yl]phenoxy]acetic acid] came in with an IC50 of 0.0001 to 1 µM.
